Our source for the IC50 values is BindingDB's records for patent US20240116873 (JIANGSU CHIATAI QINGJIANG PHARMACEUTICAL CO., LTD., 2024).

For orientation: IC50 means the concentration needed to halve the response being measured.

The target of assay [1] is T1, Solute carrier family 22 member 12 (Homo sapiens, UniProt Q96S37).
T1 sequence (Q96S37 whole entry): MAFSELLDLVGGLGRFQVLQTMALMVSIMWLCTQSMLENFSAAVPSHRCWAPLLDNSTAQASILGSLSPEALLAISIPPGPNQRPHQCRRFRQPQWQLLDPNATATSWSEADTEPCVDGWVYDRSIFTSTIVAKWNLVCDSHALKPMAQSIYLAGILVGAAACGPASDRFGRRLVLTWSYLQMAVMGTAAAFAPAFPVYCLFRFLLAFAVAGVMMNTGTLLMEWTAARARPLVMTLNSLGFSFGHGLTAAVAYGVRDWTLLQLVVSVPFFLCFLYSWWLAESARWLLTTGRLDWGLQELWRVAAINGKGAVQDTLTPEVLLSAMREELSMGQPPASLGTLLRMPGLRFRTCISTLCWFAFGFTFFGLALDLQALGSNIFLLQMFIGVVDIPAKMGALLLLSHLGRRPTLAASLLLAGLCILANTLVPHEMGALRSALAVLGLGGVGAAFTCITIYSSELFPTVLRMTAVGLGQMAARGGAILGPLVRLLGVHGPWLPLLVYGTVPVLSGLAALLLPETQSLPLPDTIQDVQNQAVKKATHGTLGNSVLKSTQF
The assay is described as follows: Inhibitory Assay.

Assay [2] concerns the target T2, Solute carrier family 22 member 11 (Homo sapiens, UniProt Q9NSA0).
T2 sequence (Q9NSA0 whole entry): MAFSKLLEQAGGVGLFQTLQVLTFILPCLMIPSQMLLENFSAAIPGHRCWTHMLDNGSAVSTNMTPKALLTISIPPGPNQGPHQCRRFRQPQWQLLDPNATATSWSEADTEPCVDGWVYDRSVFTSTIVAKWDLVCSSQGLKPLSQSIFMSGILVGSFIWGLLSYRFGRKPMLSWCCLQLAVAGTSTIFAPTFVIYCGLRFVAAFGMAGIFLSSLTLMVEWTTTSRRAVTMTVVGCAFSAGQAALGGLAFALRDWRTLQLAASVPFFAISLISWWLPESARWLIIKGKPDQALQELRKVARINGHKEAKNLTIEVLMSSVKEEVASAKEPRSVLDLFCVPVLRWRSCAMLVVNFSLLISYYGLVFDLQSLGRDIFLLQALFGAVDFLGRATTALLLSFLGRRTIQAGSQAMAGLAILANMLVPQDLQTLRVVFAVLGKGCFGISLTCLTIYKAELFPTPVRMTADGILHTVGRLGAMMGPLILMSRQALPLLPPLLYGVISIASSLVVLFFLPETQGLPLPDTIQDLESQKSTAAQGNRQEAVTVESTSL
The assay is described as follows: Inhibitory Assay.

With `CC(C)(Sc1ccnc2ccc(F)cc12)C(=O)NS(C)(=O)=O` [US20240116873, Compound B], in assay [1], the IC50 was found to be 2.79 µM. Still for that read-out and setting: with `CC(C)(Sc1ccnc2ccc(Br)cc12)C(=O)NS(=O)(=O)c1cccs1` [US20240116873, Compound E] the figure was 3.42 µM. On the same count and under the same terms, with `CCS(=O)(=O)NC(=O)C(C)(C)Sc1ccnc2ccc(Br)cc12` [US20240116873, Compound C] the figure was 1.18 µM. On the same count and under the same terms, for `Cc1ccc2nccc(SC(C)(C)C(=O)NS(C)(=O)=O)c2c1` [US20240116873, Compound A] the value was 3.15 µM. Take `CC(C)(Sc1ccnc2ccc(C(F)(F)F)cc12)C(=O)NS(C)(=O)=O` [US20240116873, Compound D]: in assay [2], it took 83.8 µM to reach half-maximal inhibition (IC50).
